The values below are quoted from earlier work in patent publication US20230046963A1, “METHOD FOR DYEING KERATINOUS MATERIAL, COMPRISING THE USE OF AN ORGANOSILICON COMPOUND, A DYEING COMPOUND AND A PRE-TREATMENT AGENT” (Henkel AG & Co. KGaA, priority 2019, published 2023).

The conditions of this data set: 25° C.

Consider `Nc1cc(S(=O)(=O)[O-])cc2cc(S(=O)(=O)[O-])c(N=Nc3ccccc3)c(O)c12.[Na+].[Na+]` [Acid Red 33, disodium salt of 5-amino-4-hydroxy-3-(phenylazo)-naphthalene-2,7-disulphonate], for which the solubility in water is 2.5 mg/mL.

Turning to `O=S(=O)([O-])c1ccc(N=Nc2c(O)ccc3ccccc23)cc1.[Na+]` [Acid Orange 7, sodium salt of 4-[(2-hydroxy-1-naphthyl)azo]benzenesulfonate], the solubility in water result was “more than 7 g/L”. On to `O=C([O-])C1=NN(c2ccc(S(=O)(=O)[O-])cc2)C(=O)C1N=Nc1ccc(S(=O)(=O)[O-])cc1.[Na+].[Na+].[Na+]` (centres unmarked) [Acid Yellow 23, trisodium salt of 4,5-dihydro-5-oxo-1-(4-sulfophenyl)-4-((4-sulfophenyl)azo)-1H-pyrazole-3-carboxylic acid], for which the “solubility in water (in words)” value is recorded as “readily soluble in water”. On to “mixture of the sodium salts of mono- and disulfonic acids of 2-(2-quinolyl)-1H-indene-1,3(2H)-dione [Acid Yellow 3]”, for which the solubility in water was 20 mg/mL.

Turning to `O=C([O-])c1c(Cl)c(Cl)c(Cl)c(Cl)c1-c1c2c(Br)cc(=O)c(Br)c-2oc2c(Br)c(O)cc(Br)c12.O=C([O-])c1c(Cl)c(Cl)c(Cl)c(Cl)c1-c1c2c(Br)cc(=O)c(Br)c-2oc2c(Br)c(O)cc(Br)c12.[Na+].[Na+]` [Acid Red 92, disodium salt of 3,4,5,6-tetrachloro-2-(1,4,5,8-tetrabromo-6-hydroxy-3-oxoxanthen-9-yl)benzoic acid], the solubility in water result is “greater than 10 g/L”.
